# ChEMBL document CHEMBL1201861, “Genomics of Drug Sensitity in Cancer screening data, Wellcome Trust Sanger Institute”
# Legend:
# Test in all cases: cells
# LC-2-ad = type: functional, cell-based, Homo sapiens; conditions: Homo sapiens, LC-2-ad;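 note: growth inhibition of human LC-2-ad cells, read out with a cell viability assay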
# Description: SANGER: Inhibition of human LC-2-ad cell growth in a cell viability assay.
# GB-1 = type: functional, cell-based, Homo sapiens; conditions: Homo sapiens, GB-1;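 note: growth of GB-1 cells judged by a viability assay, IC50 marks the concentration inhibiting growth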
# Description: SANGER: Inhibition of human GB-1 cell growth in a cell viability assay.
# COLO-800 = type: functional, cell-based, Homo sapiens; conditions: Homo sapiens, COLO-800;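 note: growth inhibition of COLO-800 cells, read out with a cell viability assay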
# Description: SANGER: Inhibition of human COLO-800 cell growth in a cell viability assay.
# KNS-81-FD = type: functional, cell-based, Homo sapiens; conditions: Homo sapiens, KNS-81-FD;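 note: growth inhibition of KNS-81-FD cells, read out with a cell viability assay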
# Description: SANGER: Inhibition of human KNS-81-FD cell growth in a cell viability assay.
# NH-12 = type: functional, cell-based, Homo sapiens; conditions: Homo sapiens, NH-12;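 note: growth inhibition of NH-12 cells, read out with a cell viability assay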
# Description: SANGER: Inhibition of human NH-12 cell growth in a cell viability assay.
# PSN1 = type: functional, cell-based, Homo sapiens; conditions: Homo sapiens, PSN1;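 note: suppression of growth of human PSN1 cells, read out by a cell viability assay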
# Description: SANGER: Inhibition of human PSN1 cell growth in a cell viability assay.
# KP-N-YN = type: functional, cell-based; conditions: Homo sapiens;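 note: growth inhibition of KP-N-YN cells, read out with a cell viability assay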
# Description: SANGER: Inhibition of human KP-N-YN cell growth in a cell viability assay.
# SCH = type: functional, cell-based, Homo sapiens; conditions: Homo sapiens, SCH;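 note: growth inhibition of human SCH cells, read out in a cell viability assay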
# Description: SANGER: Inhibition of human SCH cell growth in a cell viability assay.
# CP66-MEL = type: functional, cell-based, Homo sapiens; conditions: Homo sapiens, CP66-MEL;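 note: growth inhibition of CP66-MEL cells determined in a cell viability assay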
# Description: SANGER: Inhibition of human CP66-MEL cell growth in a cell viability assay.
# NB7 = type: functional, cell-based; conditions: Homo sapiens;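 note: growth inhibition of NB7 cells, read out with a cell viability assay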
# Description: SANGER: Inhibition of human NB7 cell growth in a cell viability assay.
# TE-12 = type: functional, cell-based; conditions: Homo sapiens;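 note: growth inhibition of TE-12 cells, read out by a cell viability assay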
# Description: SANGER: Inhibition of human TE-12 cell growth in a cell viability assay.
# NB12 = type: functional, cell-based, Homo sapiens; conditions: Homo sapiens, NB12;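 note: growth inhibition of human NB12 cells, read out by a cell viability assay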
# Description: SANGER: Inhibition of human NB12 cell growth in a cell viability assay.
# BV-173 = type: functional, cell-based; conditions: Homo sapiens
# Description: SANGER: Inhibition of human BV-173 cell growth in a cell viability assay.
# TE-5 = type: functional, cell-based, Homo sapiens; conditions: Homo sapiens, TE-5;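 note: inhibition of cell growth, read out by a cell viability assay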
# Description: SANGER: Inhibition of human TE-5 cell growth in a cell viability assay.
# HCC2157 = type: functional, cell-based; conditions: Homo sapiens;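 note: growth inhibition of the cancer cell line, read out as cell viability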
# Description: SANGER: Inhibition of human HCC2157 cell growth in a cell viability assay.
# SK-LMS-1 = type: functional, cell-based, Homo sapiens; conditions: Homo sapiens, SK-LMS-1;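 note: growth inhibition of human SK-LMS-1 cells, read out with a cell viability assay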
# Description: SANGER: Inhibition of human SK-LMS-1 cell growth in a cell viability assay.
# ACN = type: functional, cell-based, Homo sapiens; conditions: Homo sapiens, ACN;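 note: growth inhibition of the human ACN cell line, read out via cell viability testing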
# Description: SANGER: Inhibition of human ACN cell growth in a cell viability assay.
# DU-4475 = type: functional, cell-based; conditions: Homo sapiens
# Description: SANGER: Inhibition of human DU-4475 cell growth in a cell viability assay.
# HDLM-2 = type: functional, cell-based; conditions: Homo sapiens;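 note: cell viability assay measuring suppression of HDLM-2 proliferation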
# Description: SANGER: Inhibition of human HDLM-2 cell growth in a cell viability assay.
# OS-RC-2 = type: functional, cell-based, Homo sapiens; conditions: Homo sapiens, OS-RC-2;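 note: growth inhibition of human OS-RC-2 cells, measured by a cell viability assay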
# Description: SANGER: Inhibition of human OS-RC-2 cell growth in a cell viability assay.
# LU-139 = type: functional, cell-based; conditions: Homo sapiens
# Description: SANGER: Inhibition of human LU-139 cell growth in a cell viability assay.
# NEC8 = type: functional, cell-based, Homo sapiens; conditions: Homo sapiens, NEC8;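 note: growth inhibition of human NEC8 cells, read out by a cell viability assay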
# Description: SANGER: Inhibition of human NEC8 cell growth in a cell viability assay.
# HAL-01 = type: functional, cell-based; conditions: Homo sapiens;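 note: growth inhibition of human HAL-01 cells, read out with a cell viability assay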
# Description: SANGER: Inhibition of human HAL-01 cell growth in a cell viability assay.
# Mo = type: functional, cell-based; conditions: Homo sapiens
# Description: SANGER: Inhibition of human Mo-T cell growth in a cell viability assay.
# NCI-H1304 = type: functional, cell-based; conditions: Homo sapiens;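 note: growth inhibition of the cancer cell line, measured in a cell viability assay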
# Description: SANGER: Inhibition of human NCI-H1304 cell growth in a cell viability assay.
SMILES,IC50 (LC-2-ad),IC50 (GB-1),IC50 (COLO-800),IC50 (KNS-81-FD),IC50 (NH-12),IC50 (PSN1),IC50 (CP66-MEL),IC50 (NB7),IC50 (TE-12),IC50 (BV-173),IC50 (TE-5),IC50 (HCC2157),IC50 (SK-LMS-1),IC50 (ACN),IC50 (DU-4475),IC50 (HDLM-2),IC50 (OS-RC-2),IC50 (LU-139),IC50 (NEC8),IC50 (HAL-01),further results
C=C1C(=O)O[C@@H]2C3O[C@]3(C)CC/C=C(\C)CC[C@@H]12 (some centres undefined),> 5 µM,> 5 µM,> 5 µM,> 5 µM,> 5 µM,> 5 µM,> 5 µM,> 5 µM,> 5 µM,> 5 µM,> 5 µM,> 5 µM,> 5 µM,> 5 µM,> 5 µM,> 5 µM,> 5 µM,> 5 µM,> 5 µM,> 5 µM,IC50 (KP-N-YN): > 5 µM; IC50 (SCH): > 5 µM; IC50 (NB12): > 5 µM; IC50 (Mo): > 5 µM; IC50 (NCI-H1304): > 5 µM
CC1=C2C[C@H]3[C@@H](CC=C4C[C@@H](O)CC[C@@]43C)[C@@H]2CC[C@]12O[C@@H]1C[C@H](C)CN[C@H]1[C@H]2C [CYCLOPAMINE],> 16 µM,> 16 µM,> 16 µM,> 16 µM,> 16 µM,> 16 µM,> 16 µM,> 16 µM,> 16 µM,> 16 µM,> 16 µM,> 16 µM,> 16 µM,> 16 µM,> 16 µM,> 16 µM,5.87 µM,> 16 µM,> 16 µM,> 16 µM,IC50 (KP-N-YN): > 16 µM; IC50 (SCH): > 16 µM; IC50 (NB12): > 16 µM; IC50 (Mo): > 16 µM; IC50 (NCI-H1304): > 16 µM
CS(=O)(=O)CCNCc1ccc(-c2ccc3ncnc(Nc4ccc(OCc5cccc(F)c5)c(Cl)c4)c3c2)o1 [LAPATINIB],> 2 µM,> 2 µM,> 2 µM,> 2 µM,> 2 µM,> 2 µM,> 2 µM,> 2 µM,0.491 µM,> 2 µM,> 2 µM,> 2 µM,> 2 µM,> 2 µM,> 2 µM,> 2 µM,1.99 µM,> 2 µM,> 2 µM,> 2 µM,IC50 (SCH): > 2 µM; IC50 (NB12): > 2 µM; IC50 (Mo): > 2 µM; IC50 (NCI-H1304): > 2 µM
CCc1nc(N)nc(N)c1-c1ccc(Cl)cc1 [PYRIMETHAMINE],> 20 µM,> 20 µM,> 20 µM,> 20 µM,> 20 µM,2.86 µM,> 20 µM,> 20 µM,> 20 µM,12.7 µM,> 20 µM,> 20 µM,> 20 µM,2.3 µM,> 20 µM,> 20 µM,2.61 µM,11.1 µM,1.5 µM,4.74 µM,IC50 (KP-N-YN): > 20 µM; IC50 (SCH): 16.9 µM; IC50 (NB12): > 20 µM; IC50 (Mo): > 20 µM; IC50 (NCI-H1304): > 20 µM
O=C(/C=C/c1ccccc1)NC(NC(=S)Nc1cccc2cccnc12)C(Cl)(Cl)Cl (centres undefined) [SALUBRINAL],> 16 µM,> 16 µM,> 16 µM,> 16 µM,> 16 µM,> 16 µM,> 16 µM,> 16 µM,11.3 µM,11.5 µM,> 16 µM,> 16 µM,> 16 µM,> 16 µM,> 16 µM,> 16 µM,> 16 µM,14 µM,6.05 µM,9.32 µM,IC50 (KP-N-YN): > 16 µM; IC50 (SCH): > 16 µM; IC50 (NB12): > 16 µM; IC50 (Mo): > 16 µM; IC50 (NCI-H1304): > 16 µM
CN1CCN(CCOc2cc(OC3CCOCC3)c3c(Nc4c(Cl)ccc5c4OCO5)ncnc3c2)CC1 [SARACATINIB],> 2 µM,1.8 µM,> 2 µM,> 2 µM,> 2 µM,> 2 µM,> 2 µM,> 2 µM,0.327 µM,0.652 µM,> 2 µM,> 2 µM,> 2 µM,> 2 µM,> 2 µM,> 2 µM,1.89 µM,> 2 µM,> 2 µM,> 2 µM,IC50 (Mo): > 2 µM; IC50 (NCI-H1304): > 2 µM
CO[C@H]1C[C@@H]2CC[C@@H](C)[C@@](O)(O2)C(=O)C(=O)N2CCCC[C@H]2C(=O)O[C@H]([C@H](C)C[C@@H]2CC[C@@H](O)[C@H](OC)C2)CC(=O)[C@H](C)/C=C(\C)[C@@H](O)[C@@H](OC)C(=O)[C@H](C)C[C@H](C)/C=C/C=C/C=C/1C [SIROLIMUS],0.000423 µM,> 0.1 µM,> 0.1 µM,> 0.1 µM,> 0.1 µM,> 0.1 µM,> 0.1 µM,> 0.1 µM,> 0.1 µM,0.084 µM,> 0.1 µM,> 0.1 µM,0.00249 µM,> 0.1 µM,> 0.1 µM,> 0.1 µM,0.000652 µM,> 0.1 µM,> 0.1 µM,> 0.1 µM,IC50 (Mo): > 0.1 µM; IC50 (NCI-H1304): 0.0572 µM
CNC(=O)c1cc(Oc2ccc(NC(=O)Nc3ccc(Cl)c(C(F)(F)F)c3)cc2)ccn1 [SORAFENIB],> 4 µM,> 4 µM,> 4 µM,> 4 µM,> 4 µM,> 4 µM,> 4 µM,> 4 µM,> 4 µM,> 4 µM,3.13 µM,> 4 µM,> 4 µM,> 4 µM,> 4 µM,> 4 µM,> 4 µM,> 4 µM,> 4 µM,> 4 µM,IC50 (KP-N-YN): > 4 µM; IC50 (SCH): > 4 µM; IC50 (NB12): > 4 µM; IC50 (Mo): > 4 µM; IC50 (NCI-H1304): > 4 µM
CCC(=O)N1CCN(c2ccc(-n3c(=O)ccc4cnc5ccc(-c6cnc7ccccc7c6)cc5c43)cc2C(F)(F)F)CC1 [TORIN1],0.0214 µM,0.0155 µM,> 1.2 µM,0.113 µM,> 1.2 µM,0.0141 µM,0.314 µM,> 1.2 µM,0.0255 µM,0.022 µM,0.0385 µM,0.34 µM,0.0141 µM,0.015 µM,0.0917 µM,> 1.2 µM,0.0232 µM,0.13 µM,0.562 µM,0.0766 µM,IC50 (SCH): 0.14 µM; IC50 (Mo): > 1.2 µM; IC50 (NCI-H1304): > 1.2 µM
Cc1cc(Nc2cc(N3CCN(C)CC3)nc(Sc3ccc(NC(=O)C4CC4)cc3)n2)n[nH]1 [TOZASERTIB],0.0879 µM,> 2 µM,> 2 µM,> 2 µM,> 2 µM,0.22 µM,> 2 µM,> 2 µM,> 2 µM,0.126 µM,> 2 µM,> 2 µM,1.22 µM,> 2 µM,1.02 µM,> 2 µM,> 2 µM,> 2 µM,> 2 µM,1.17 µM,IC50 (SCH): > 2 µM; IC50 (Mo): > 2 µM; IC50 (NCI-H1304): 1.83 µM
